Key:
[1] = Bioavailability of palonosetron as ocular drops vs. intravenous administration; assay type: in vivo, Beagle dogs
Procedure: Experiment 1. Bioavailability of Palonosetron as Ocular Drops Vs. Intravenous Administration
Bioavailability of palonosetron as ocular drops at the dose of 30 μg/kg was compared to 10 μg/kg intravenous (i.v.) palonosetron in Beagle dogs (n=6). The study was a crossover study with 7 days washout period between the treatment periods. The animals were fasted overnight before dosing by withdrawing the remaining feed (if any) at least 12 h before dosing. On dosing days food was offered approximately at 4 h after dosing (after the 4 h blood sampling).
Palonosetron 30 μg/kg eye drops prepared according to Formulation Example 1 were administered in the eye using a micropipette in an amount of 10 μl/kg (approximately half volume in each eye).
Palonosetron 10 μg/kg intravenous dose was administered in cephalic vein in slow i.v. bolus dosed within 30 seconds.
Blood samples were collected into K2EDTA tubes over a 48 h period after each treatment at the following time points: predose, 5 min, 10 min, 20 min, 30 min, 45 min, 1 h, 1.5 h, 2 h, 4 h, 6 h, 8 h, 12 h, 24 h and 48 h post administration. Aliquots of plasma were prepared and stored frozen until analysis. Palonosetron concentration in plasma was determined using Liquid chromatography-triple quadrupole mass spectrometry. The lower limit of quantification for palonosetron in dog plasma was 0.02 ng/ml.

[2] = test system: cisplatin-induced nausea and vomiting; assay: Efficacy of palonosetron eye drops in cisplatin-induced nausea and vomiting model; assay type: in vivo, Beagle dogs; conditions: n=6; for vomiting episodes: T0-T420 min
Procedure: Experiment 3. Efficacy of Palonosetron Eye Drops in Cisplatin-Induced Nausea and Vomiting Model Methods: Six non-naive adult male Beagle dogs were intravenously administered (2 ml/min) cisplatin at 18 mg/m^2 body surface over 20 min. Then, 45 min after the end of the infusion, the dogs received eye drops prepared according to Formulation Example 1 at 30 or 120 μg/kg of palonosetron or its vehicle (0.9% saline, 2% povidone) in a cross-over design. Then, the following parameters were recorded by blinded observers over 15 min periods from TO (end of the infusion of cisplatin) to 420 min (T420) after the end of the infusion of cisplatin: vomiting episodes and nausea-like behaviours including salivation, exaggerated swallowing motions, lip licking, lethargy, restlessness, and turning behaviour signalling that vomiting is imminent. In addition, a visual analogue scale (VAS) from 0 to 100 mm was used to assess the severity of the dogs' nausea-like behaviours (where a score of 0 mm=no nausea and a score of 100 mm=worst possible nausea).

[3] = 30 μg/kg ocular drops (Formulation Example 1), Beagle dogs

elimination phase [1, 3]: extended elimination phase
systemic exposure [1, 3]: good systemic exposure
bioavailability ([1]; dog, other: ocular drops (administered in the eye), 30 μg/kg ocular drops (Formulation Example 1) vs. 10 μg/kg i.v., Beagle dogs (n=6), plasma): 65.6%
Structure (SMILES): O=C1c2cccc3c2[C@H](CCC3)CN1[C@@H]1CN2CCC1CC2 [Palonosetron]
absorption [1, 3]: fast absorption comparable to intravenous administration
eye irritation [1, 3]: No significant eye irritation was seen
vomiting episodes ([2]; 30 μg/kg eye drops (Formulation Example 1) 45 min after cisplatin 18 mg/m^2 i.v.): 1 vomiting episode in 2 dogs overall
VAS AUC (nausea) ([2]; 30 μg/kg eye drops (Formulation Example 1) after cisplatin 18 mg/m^2, mean±SEM): 320±268 mm*m
vomiting episodes ([2]; 120 μg/kg eye drops (Formulation Example 1) 45 min after cisplatin 18 mg/m^2 i.v.): inhibited vomiting totally
VAS AUC (nausea) ([2]; 120 μg/kg eye drops (Formulation Example 1) after cisplatin 18 mg/m^2, mean±SEM): 0±0 mm*m

— US11433021B2, “Palonosetron for the treatment or prevention of nausea and vomiting” (ORION CORPORATION, priority 2018, dated 2022)
